Laboratory results from patent publication US8188085B2, “Antifungal agents” (Merck Sharp & Dohme Corp., priority 2008, dated 2012).

Target: glucan synthase (GS) prepared from Candida albicans MY1055 (Candida albicans, UniProt O13428)
Test: Glucan synthase inhibition (polymerization assay, 96-well)
Assay type: biochemical
Details: GS from C. albicans MY1055; 60 min incubation at 22° C.; read-out: Candida Albicans GS IC50 (converted)
Experimental: The in vitro evaluation of glucan synthase inhibitory activity of compounds was measured in a polymerization assay in 96-well format. Each well contained 100 μL of ^3H-UDPG at 0.5 mM (6000 to 8000 dpm/nmol), 50 mM HEPES pH 7.5 (Sigma), 10% w/v glycerol (Sigma), 1.5 mg/mL bovine serum albumin (Sigma A 9647. Lot 44H0190), 25 mM KF (Fisher), 1 mM EDTA (Gibco ULTRAPURE), 25 μM GTP-γ-S, enzyme sufficient to give 3 to 6 nmoles incorporation during the 60 min incubation at 22° C., and test compound added from wells in 3-fold serial dilutions in 100% DMSO (1 μL/well). The reaction was stopped by the addition of 100 μL of 20% trichloroacetic acid. Plates were chilled for a minimum of 10 min, and precipitated glucan collected by filtration on GF/C plates (Packard UNIFILTER®-96), washed with 5 cycles of water (about 1 mL/well each cycle) using a Packard FILTERMATE HARVESTER. 40 μL/well scintillation fluid (Packard ULTIMA GOLD TM-XR) was added and the sealed plates counted in a WALLAC BETA counter in top-counting mode at an efficiency of approximately 40%.
Stock solutions were stored at 10 mg/mL in DMSO at −20° C. For each new enzyme preparation, the initial titration performed started at 1 mg/mL, which was prepared by making a 10-fold dilution in DMSO (5 μL to 50 μL). 40 μL of this stock was placed in column 12 of a round-bottomed 96-well microtiter plate. 40 μL DMSO was added to columns 1 to 11 in the same row and ten 3-fold serial dilutions performed, by transferring 20 μL from column 12 to column 11 etc., with 4 mixings before each transfer. No test compound was transferred to from column 2 to column 1. Duplicate aliquots of 1 μL of all 12 dilutions were then transferred to the side walls of a 96-well Bioblock 1.1 mL plate (Fisher brand) to create two rows.
Graphs of the primary data were created in PRISM software (the average of two determinations) using PRISM's curve fitting program (sigmoidal dose response non-linear regression). The amount of compound required to inhibit glucan synthase activity by 50% in this assay (IC50−ng/mL) was calculated.
Routine analysis was performed with glucan synthase (GS) prepared from Candida albicans MY1055 by the following procedure: MY1055 was grown in 10 liters YPD medium (10 g yeast extract, 20 g tryptone, 20 g glucose per liter) with vigorous shaking at 30° C., to early stationary phase. Cells were harvested by centrifugation, the pellet was washed and frozen at −70° C. until breakage. Thawed pellets were shaken with an equal volume of breakage buffer (50 mM HEPES pH 7.4, 10% glycerol, 1 mM EDTA, 1 mM PMSF, 1 mM DTT) and 4 times their weight of 0.5 mm acid washed glass beads for 2 hours at 4° C. Extent of breakage was assessed visually at 40× magnification. After low speed centrifugation to remove cell debris, the supernatant was centrifuged at 100,000×g for 60 min. to separate membranes plus ribosomes from cytoplasmic components. Membranes were further washed two additional times with breakage buffer using the same centrifugation conditions and finally suspended in breakage buffer at 25 to 30 mg/mL protein (Biorad) for storage at −70° C. Extraction of GS activity from membranes was performed at a protein concentration of 5 mg/mL in extraction buffer (50 mM NaPO4 pH 7.5, 0.1 M KCl, 0.1M Na citrate, 20% glycerol, 5 μM GTP-γ-S, 1 mM DTT, 1 mM PMSF, 3 μg/mL pepstatin) plus 0.25% W1 by gentle mixing at 4° C. for 60 min, followed by centrifugation at 100,000×g for 60 min. After centrifugation, clear supernatant was removed from a pellet consisting of a hard layer usually with small amounts of gelatinous unextracted membranes above it.
Trapping was initiated immediately by 5-fold dilution in trapping buffer (50 mM HEPES pH 7.5, 10 mM KF, 1 mM EDTA, 2 mg/mL BSA) plus 2.5 mM UDPG and 10 μM GTP-γ-S. After incubation at 25° C. for 60 to 90 minutes, glucan was harvested by low speed centrifugation (3,000×g, 10 min). […]

Sequence of glucan synthase (GS) prepared from Candida albicans MY1055 (O13428 1-1897): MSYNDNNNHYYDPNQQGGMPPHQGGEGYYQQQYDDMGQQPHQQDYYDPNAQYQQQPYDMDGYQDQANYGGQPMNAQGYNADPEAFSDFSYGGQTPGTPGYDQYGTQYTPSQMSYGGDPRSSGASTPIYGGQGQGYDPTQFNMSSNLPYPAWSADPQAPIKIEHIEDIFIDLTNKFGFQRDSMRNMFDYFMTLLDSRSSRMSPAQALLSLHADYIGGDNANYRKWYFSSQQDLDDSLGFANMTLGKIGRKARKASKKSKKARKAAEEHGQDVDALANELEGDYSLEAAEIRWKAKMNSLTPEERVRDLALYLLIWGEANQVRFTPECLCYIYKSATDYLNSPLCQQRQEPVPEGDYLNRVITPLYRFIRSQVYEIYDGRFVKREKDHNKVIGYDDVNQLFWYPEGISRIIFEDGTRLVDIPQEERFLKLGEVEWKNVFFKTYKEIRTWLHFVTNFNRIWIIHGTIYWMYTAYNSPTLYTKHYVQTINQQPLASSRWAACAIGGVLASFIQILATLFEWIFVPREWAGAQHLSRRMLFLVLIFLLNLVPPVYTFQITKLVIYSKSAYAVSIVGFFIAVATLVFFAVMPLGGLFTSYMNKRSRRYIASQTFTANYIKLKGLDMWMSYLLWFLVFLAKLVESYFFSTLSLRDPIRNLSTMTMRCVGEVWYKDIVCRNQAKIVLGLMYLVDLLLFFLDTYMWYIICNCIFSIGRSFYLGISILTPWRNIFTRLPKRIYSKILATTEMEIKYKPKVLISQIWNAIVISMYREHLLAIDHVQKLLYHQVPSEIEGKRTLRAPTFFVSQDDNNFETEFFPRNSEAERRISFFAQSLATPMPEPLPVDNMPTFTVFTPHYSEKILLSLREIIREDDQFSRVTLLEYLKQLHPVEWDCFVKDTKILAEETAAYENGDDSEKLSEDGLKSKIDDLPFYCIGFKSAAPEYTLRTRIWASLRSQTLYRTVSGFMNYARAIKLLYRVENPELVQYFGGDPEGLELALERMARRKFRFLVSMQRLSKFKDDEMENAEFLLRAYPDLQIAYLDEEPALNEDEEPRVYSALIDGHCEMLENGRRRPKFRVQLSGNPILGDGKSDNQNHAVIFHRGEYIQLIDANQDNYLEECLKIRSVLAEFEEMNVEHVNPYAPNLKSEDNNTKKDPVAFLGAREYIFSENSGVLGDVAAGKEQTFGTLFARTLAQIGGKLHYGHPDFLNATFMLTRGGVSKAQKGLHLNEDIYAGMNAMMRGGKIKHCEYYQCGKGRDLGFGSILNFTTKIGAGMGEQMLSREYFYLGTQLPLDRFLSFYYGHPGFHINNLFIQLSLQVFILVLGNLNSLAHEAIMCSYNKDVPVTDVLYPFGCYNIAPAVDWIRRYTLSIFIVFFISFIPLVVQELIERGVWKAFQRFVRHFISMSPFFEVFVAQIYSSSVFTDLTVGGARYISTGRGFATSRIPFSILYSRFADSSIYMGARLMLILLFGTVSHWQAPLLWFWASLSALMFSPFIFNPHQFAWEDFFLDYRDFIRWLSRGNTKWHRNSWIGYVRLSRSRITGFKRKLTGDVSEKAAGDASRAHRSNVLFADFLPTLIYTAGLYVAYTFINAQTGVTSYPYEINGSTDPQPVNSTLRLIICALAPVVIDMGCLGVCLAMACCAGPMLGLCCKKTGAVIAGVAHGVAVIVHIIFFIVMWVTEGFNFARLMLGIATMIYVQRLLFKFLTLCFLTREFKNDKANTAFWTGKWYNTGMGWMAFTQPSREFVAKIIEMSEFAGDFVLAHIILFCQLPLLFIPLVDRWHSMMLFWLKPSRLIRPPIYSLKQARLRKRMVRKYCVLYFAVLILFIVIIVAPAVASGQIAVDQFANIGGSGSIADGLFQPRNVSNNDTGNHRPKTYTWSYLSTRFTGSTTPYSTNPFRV

Row | Structure (SMILES) | IC50 [nM]
1 | CC(C)[C@@H](C)[C@@]1(C)CC[C@]2(C)[C@H]3CC[C@@H]4[C@@]5(COC[C@@]4(C)[C@@H](OC[C@](C)(N)C(C)(C)C)[C@H](n4ncnc4C(N)=O)C5)C3=CC[C@@]2(C)[C@@H]1C(=O)O [Example 44, (1S,4aR,6aS,7R,8R,10aR,10bR,12aR,14R,15R)-14-[5-(aminocarbonyl)-1H-1,2,4-triazol-1-yl]-15-[[(2R)-2-amino-2,3,3-trimethylbutyl]oxy]-8-[(1R)-1,2-dimethylpropyl]-1,6,6a,7,8,9,10,10a,10b,11,12,12a-dodecahydro-1,6a,8,10a-tetramethyl-4H-1,4a-propano-2H-phenanthro[1,2-c]pyran-7-carboxylic acid] | 4.31
2 | CN[C@@](C)(CO[C@H]1[C@H](n2ncnc2C(=O)NC2CC2)C[C@@]23COC[C@]1(C)[C@@H]2CC[C@H]1C3=CC[C@@]2(C)[C@H](C(=O)O)[C@@](C)([C@H](C)C(C)C)CC[C@]12C)C(C)C [Example 64, (1S,4aR,6aS,7R,8R,10aR,10bR,12aR,14R,15R)-14-[5-[(cyclopropylamino)carbonyl]-1H-1,2,4-triazol-1-yl]-15-[[(2R)-2,3-dimethyl-2-(methylamino)butyl]oxy]-8-[(1R)-1,2-dimethylpropyl]-1,6,6a,7,8,9,10,10a,10b,11,12,12a-dodecahydro-1,6a,8,10a-tetramethyl-4H-1,4a-propano-2H-phenanthro[1,2-c]pyran-7-carboxylic acid] | 13.6
3 | CN[C@@](C)(CO[C@H]1[C@H](n2ncnc2C(=O)NCCF)C[C@@]23COC[C@]1(C)[C@@H]2CC[C@H]1C3=CC[C@@]2(C)[C@H](C(=O)O)[C@@](C)([C@H](C)C(C)C)CC[C@]12C)C(C)C [Example 77, (1S,4aR,6aS,7R,8R,10aR,10bR,12aR,14R,15R)-15-[[(2R)-2,3-dimethyl-2-(methylamino)butyl]oxy]-8-[(1R)-1,2-dimethylpropyl]-14-[5-[[(2-fluoroethyl)amino]carbonyl]-1H-1,2,4-triazol-1-yl]-1,6,6a,7,8,9,10,10a,10b,11,12,12a-dodecahydro-1,6a,8,10a-tetramethyl-4H-1,4a-propano-2H-phenanthro[1,2-c]pyran-7-carboxylic acid] | 8.09
4 | CC(C)[C@@H](C)[C@@]1(C)CC[C@]2(C)[C@H]3CC[C@@H]4[C@@]5(COC[C@@]4(C)[C@@H](OC[C@](C)(N)C(C)C)[C@H](n4ncnc4C(=O)NCC(F)(F)F)C5)C3=CC[C@@]2(C)[C@@H]1C(=O)O [Example 80, (1S,4aR,6aS,7R,8R,10aR,10bR,12aR,14R,15R)-15-[[(2R)-2-amino-2,3-dimethylbutyl]oxy]-8-[(1R)-1,2-dimethylpropyl]-14-[5-[[(2,2,2-trifluoroethyl)amino]carbonyl]-1H-1,2,4-triazol-1-yl]-1,6,6a,7,8,9,10,10a,10b,11,12,12a-dodecahydro-1,6a,8,10a-tetramethyl-4H-1,4a-propano-2H-phenanthro[1,2-c]pyran-7-carboxylic acid] | 10.5
5 | CC(C)[C@@H](C)[C@@]1(C)CC[C@]2(C)[C@H]3CC[C@@H]4[C@@]5(COC[C@@]4(C)[C@@H](OC[C@](C)(N)C(C)C)[C@H](n4ncnc4C(=O)NCCN(C)C)C5)C3=CC[C@@]2(C)[C@@H]1C(=O)O [Example 83, (1S,4aR,6aS,7R,8R,10aR,10bR,12aR,14R,15R)-15-[[(2R)-2-amino-2,3-dimethylbutyl]oxy]-14-[5-[[[2-(dimethylamino)ethyl]amino]carbonyl]-1H-1,2,4-triazol-1-yl]-8-[(1R)-1,2-dimethylpropyl]-1,6,6a,7,8,9,10,10a,10b,11,12,12a-dodecahydro-1,6a,8,10a-tetramethyl-4H-1,4a-propano-2H-phenanthro[1,2-c]pyran-7-carboxylic acid] | 12
6 | CC(C)[C@@H](C)[C@@]1(C)CC[C@]2(C)[C@H]3CC[C@@H]4[C@@]5(COC[C@@]4(C)[C@@H](OC[C@](C)(N)C(C)C)[C@H](n4ncnc4C(=O)N4CCOCC4)C5)C3=CC[C@@]2(C)[C@@H]1C(=O)O [Example 86, (1S,4aR,6aS,7R,8R,10aR,10bR,12aR,14R,15R)-15-[[(2R)-2-amino-2,3-dimethylbutyl]oxy]-8-[(1R)-1,2-dimethylpropyl]-14-[5-(4-morpholinylcarbonyl)-1H-1,2,4-triazol-1-yl]-1,6,6a,7,8,9,10,10a,10b,11,12,12a-dodecahydro-1,6a,8,10a-tetramethyl-4H-1,4a-propano-2H-phenanthro[1,2-c]pyran-7-carboxylic acid] | 70.5
7 | CNC(=O)c1ncnn1[C@@H]1C[C@@]23COC[C@](C)([C@@H]2CC[C@H]2C3=CC[C@@]3(C)[C@H](C(=O)O)[C@@](C)([C@H](C)C(C)C)CC[C@]23C)[C@H]1OC[C@](C)(N)C(C)(C)C [Example 89, (1S,4aR,6aS,7R,8R,10aR,10bR,12aR,14R,15R)-15-[[(2R)-2-amino-2,3,3-trimethylbutyl]oxy]-8-[(1R)-1,2-dimethylpropyl]-14-[5-[(methylamino)carbonyl]-1H-1,2,4-triazol-1-yl]-1,6,6a,7,8,9,10,10a,10b,11,12,12a-dodecahydro-1,6a,8,10a-tetramethyl-4H-1,4a-propano-2H-phenanthro[1,2-c]pyran-7-carboxylic acid] | 11.3
8 | CC(C)[C@@H](C)[C@@]1(C)CC[C@]2(C)[C@H]3CC[C@@H]4[C@@]5(COC[C@@]4(C)[C@@H](OC[C@H](N)C(C)(C)C)[C@H](n4ncnc4C(N)=O)C5)C3=CC[C@@]2(C)[C@@H]1C(=O)O [Example 97, (1S,4aR,6aS,7R,8R,10aR,10bR,12aR,14R,15R)-14-[5-(aminocarbonyl)-1H-1,2,4-triazol-1-yl]-15-[[(2R)-2-amino-3,3-dimethylbutyl]oxy]-8-[(1R)-1,2-dimethylpropyl]-1,6,6a,7,8,9,10,10a,10b,11,12,12a-dodecahydro-1,6a,8,10a-tetramethyl-4H-1,4a-propano-2H-phenanthro[1,2-c]pyran-7-carboxylic acid] | 11.7
9 | CCCNC(=O)c1ncnn1[C@@H]1C[C@@]23COC[C@](C)([C@@H]2CC[C@H]2C3=CC[C@@]3(C)[C@H](C(=O)O)[C@@](C)([C@H](C)C(C)C)CC[C@]23C)[C@H]1OC[C@@](C)(N)C(C)C [Example 105, (1S,4aR,6aS,7R,8R,10aR,10bR,12aR,14R,15R)-15-[[(2S)-2-amino-2,3-dimethylbutyl]oxy]-8-[(1R)-1,2-dimethylpropyl]-14-[5-[(propylamino)carbonyl]-1H-1,2,4-triazol-1-yl]-1,6,6a,7,8,9,10,10a,10b,11,12,12a-dodecahydro-1,6a,8,10a-tetramethyl-4H-1,4a-propano-2H-phenanthro[1,2-c]pyran-7-carboxylic acid] | 29
10 | CNC1(CO[C@H]2[C@H](n3ncnc3C(N)=O)C[C@@]34COC[C@]2(C)[C@@H]3CC[C@H]2C4=CC[C@@]3(C)[C@H](C(=O)O)[C@@](C)([C@H](C)C(C)C)CC[C@]23C)CCCCC1 [Example 107, (1S,4aR,6aS,7R,8R,10aR,10bR,12aR,14R,15R)-14-[5-(aminocarbonyl)-1H-1,2,4-triazol-1-yl]-8-[(1R)-1,2-dimethylpropyl]-15-[[1-(methylamino)cyclohexyl]methoxy]-1,6,6a,7,8,9,10,10a,10b,11,12,12a-dodecahydro-1,6a,8,10a-tetramethyl-4H-1,4a-propano-2H-phenanthro[1,2-c]pyran-7-carboxylic acid] | 19.8
